# Several values for one entry are separate records, joined by “and”; a condition that tells them apart may be missing. Equal values may be shown once. Inconclusive results and toxic doses are left out.
# System: P388 leukemia ip, CD2F1 mice, survival T/C
# Experiment: NCI In Vivo Anticancer Drug Screen. Data for tumor model P388 Leukemia (intraperitoneal) in CD2F1 (CDF1) mice
# Details: endpoint: median survival time, higher = longer survival
# Outline: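 Mice carrying the transplanted tumor received test compound or vehicle. Survival was recorded in each group, and the value is the treated-group measurement divided by that of the vehicle-treated control group.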
# [1] = dose: 25.0 mg/kg/injection, schedule: Q01DX009 (ip), vehicle: other
# [2] = dose: 50.0 mg/kg/injection, schedule: Q01DX009 (ip), vehicle: other
# [3] = dose: 100.0 mg/kg/injection, schedule: Q01DX009 (ip), vehicle: other
# [4] = dose: 200.0 mg/kg/injection, schedule: Q01DX009 (ip), vehicle: other
# [5] = dose: 6.25 mg/kg/injection, schedule: Q01DX005 (ip), vehicle: Klucel (hydroxypropylcellulose) (HPC)
# [6] = dose: 12.5 mg/kg/injection, schedule: Q01DX005 (ip), vehicle: Klucel (hydroxypropylcellulose) (HPC)
# [7] = dose: 25.0 mg/kg/injection, schedule: Q01DX009 (ip), vehicle: Klucel (hydroxypropylcellulose) (HPC)
# [8] = dose: 50.0 mg/kg/injection, schedule: Q01DX009 (ip), vehicle: Klucel (hydroxypropylcellulose) (HPC)
# [9] = dose: 6.25 mg/kg/injection, schedule: Q01DX009 (ip), vehicle: Klucel (hydroxypropylcellulose) (HPC)
# [10] = dose: 12.5 mg/kg/injection, schedule: Q01DX009 (ip), vehicle: Klucel (hydroxypropylcellulose) (HPC)
# [11] = dose: 50.0 mg/kg/injection, schedule: Q01DX009 (ip), vehicle: saline
# [12] = dose: 100.0 mg/kg/injection, schedule: Q01DX009 (ip), vehicle: saline
# [13] = dose: 50.0 mg/kg/injection, schedule: Q01DX009 (ip), vehicle: suspension in saline
smiles,measurement,setting,value
COc1cc2cc3c4cc(OC)c(OC)cc4cc[n+]3c(C)c2cc1OC,T/C,[1],155 % of control
same,T/C,[2],152 % of control and 169 % of control and 178 % of control
same,T/C,"dose: 50.0 mg/kg/injection, schedule: Q01DX009 (ip), vehicle: saline sonified",109 % of control
same,T/C,"dose: 50.0 mg/kg/injection, schedule: Q04DX003 (ip), vehicle: other",156 % of control and 158 % of control
same,T/C,[3],172 % of control and 189 % of control and 198 % of control
same,T/C,"dose: 100.0 mg/kg/injection, schedule: Q01DX009 (ip), vehicle: saline sonified",109 % of control
same,T/C,"dose: 100.0 mg/kg/injection, schedule: Q01DX009 (oral), vehicle: saline",104 % of control
same,T/C,"dose: 100.0 mg/kg/injection, schedule: Q04DX003 (ip), vehicle: other",153 % of control and 169 % of control and 177 % of control
same,T/C,"dose: 200.0 mg/kg/injection, schedule: Q01DX001 (oral), vehicle: saline",104 % of control
same,T/C,[4],153 % of control and 162 % of control
same,T/C,"dose: 200.0 mg/kg/injection, schedule: Q01DX009 (ip), vehicle: saline sonified",109 % of control
same,T/C,"dose: 200.0 mg/kg/injection, schedule: Q01DX009 (oral), vehicle: saline",104 % of control
same,T/C,"dose: 200.0 mg/kg/injection, schedule: Q04DX003 (ip), vehicle: other",166 % of control (2×) and 199 % of control
same,T/C,"dose: 200.0 mg/kg/injection, schedule: Q04DX003 (oral), vehicle: saline",104 % of control
same,T/C,"dose: 400.0 mg/kg/injection, schedule: Q01DX001 (oral), vehicle: saline",100 % of control
same,T/C,"dose: 400.0 mg/kg/injection, schedule: Q01DX009 (ip), vehicle: other",182 % of control
same,T/C,"dose: 400.0 mg/kg/injection, schedule: Q01DX009 (ip), vehicle: saline sonified",90 % of control
same,T/C,"dose: 400.0 mg/kg/injection, schedule: Q01DX009 (oral), vehicle: saline",100 % of control
same,T/C,"dose: 400.0 mg/kg/injection, schedule: Q04DX003 (ip), vehicle: other",161 % of control and 165 % of control and 191 % of control
same,T/C,"dose: 400.0 mg/kg/injection, schedule: Q04DX003 (ip), vehicle: saline sonified",150 % of control
same,T/C,"dose: 400.0 mg/kg/injection, schedule: Q04DX003 (oral), vehicle: saline",104 % of control
same,T/C,"dose: 800.0 mg/kg/injection, schedule: Q01DX001 (oral), vehicle: saline",104 % of control
same,T/C,"dose: 800.0 mg/kg/injection, schedule: Q04DX003 (oral), vehicle: saline",109 % of control
COc1cc(NCCCCCCNC(C)C)c2ncccc2c1OC,T/C,"dose: 1.56 mg/kg/injection, schedule: Q01DX005 (ip), vehicle: Klucel (hydroxypropylcellulose) (HPC)",99 % of control
same,T/C,"dose: 3.12 mg/kg/injection, schedule: Q01DX005 (ip), vehicle: Klucel (hydroxypropylcellulose) (HPC)",105 % of control
same,T/C,[5],105 % of control
same,T/C,[6],105 % of control
CC(=O)C(Cl)c1ccccc1Cl (centres undefined),T/C,[7],111 % of control
same,T/C,[8],107 % of control and 113 % of control
same,T/C,"dose: 100.0 mg/kg/injection, schedule: Q01DX009 (ip), vehicle: Klucel (hydroxypropylcellulose) (HPC)",109 % of control
O=C(N/N=C/c1cccnc1)C(=O)Nc1cccc(C(F)(F)F)c1,T/C,[5],95 % of control
same,T/C,[6],89 % of control
same,T/C,"dose: 25.0 mg/kg/injection, schedule: Q01DX005 (ip), vehicle: Klucel (hydroxypropylcellulose) (HPC)",87 % of control
CC1CN1C1=C(F)C(=O)C(N2CC2C)=C(F)C1=O (centres undefined),T/C,"dose: 1.56 mg/kg/injection, schedule: Q01DX009 (ip), vehicle: Klucel (hydroxypropylcellulose) (HPC)",104 % of control
same,T/C,"dose: 3.12 mg/kg/injection, schedule: Q01DX009 (ip), vehicle: Klucel (hydroxypropylcellulose) (HPC)",106 % of control and 110 % of control and 116 % of control
same,T/C,[9],105 % of control and 123 % of control
Cc1cc(N(CCCl)CCCl)c(C)cc1NC(=O)c1ccccc1,T/C,"dose: 16.5 mg/kg/injection, schedule: Q04DX003 (ip), vehicle: saline with Tween-80",159 % of control
same,T/C,"dose: 25.0 mg/kg/injection, schedule: Q04DX003 (ip), vehicle: saline with Tween-80",177 % of control
same,T/C,"dose: 37.5 mg/kg/injection, schedule: Q04DX003 (ip), vehicle: saline with Tween-80",90 % of control
same,T/C,"dose: 50.0 mg/kg/injection, schedule: Q04DX003 (ip), vehicle: saline with Tween-80",90 % of control
CN(C)c1ccc(/C=C/c2ccnc3ccccc23)cc1N,T/C,[9],98 % of control
same,T/C,[10],93 % of control
same,T/C,[7],90 % of control
same,T/C,[8],109 % of control
CC/C(=N/NS(=O)(=O)c1ccc(C)cc1)c1ccc(C)c(C)c1,T/C,[11],98 % of control
same,T/C,[12],90 % of control
same,T/C,"dose: 200.0 mg/kg/injection, schedule: Q01DX009 (ip), vehicle: saline",104 % of control
N#Cc1ccccc1N=Nc1nc(N)c(C(N)=O)[nH]1,T/C,"dose: 100.0 mg/kg/injection, schedule: Q04DX003 (ip), vehicle: Klucel (hydroxypropylcellulose) (HPC)",100 % of control
same,T/C,"dose: 200.0 mg/kg/injection, schedule: Q04DX003 (ip), vehicle: Klucel (hydroxypropylcellulose) (HPC)",103 % of control
same,T/C,"dose: 400.0 mg/kg/injection, schedule: Q04DX003 (ip), vehicle: Klucel (hydroxypropylcellulose) (HPC)",100 % of control
O=[N+]([O-])c1ccc(/C=C/Oc2ccccc2)o1,T/C,[13],111 % of control
same,T/C,"dose: 100.0 mg/kg/injection, schedule: Q01DX009 (ip), vehicle: suspension in saline",110 % of control
same,T/C,"dose: 200.0 mg/kg/injection, schedule: Q01DX009 (ip), vehicle: suspension in saline",111 % of control
NC(=O)c1sc(N2CCCC2)nc1N,T/C,"dose: 60.0 mg/kg/injection, schedule: Q01DX005 (ip), vehicle: saline with Tween-80",112 % of control
same,T/C,"dose: 120.0 mg/kg/injection, schedule: Q01DX005 (ip), vehicle: saline with Tween-80",105 % of control
same,T/C,"dose: 240.0 mg/kg/injection, schedule: Q01DX005 (ip), vehicle: saline with Tween-80",118 % of control
COc1cc(C2=N/C(=C/c3cccc(O)c3O)C(=O)O2)cc(OC)c1OC,T/C,[9],101 % of control
same,T/C,[10],96 % of control
O=[N+]([O-])c1ccc(SCc2ccccc2)c2nonc12,T/C,"dose: 12.5 mg/kg/injection, schedule: Q01DX009 (ip), vehicle: suspension in saline",111 % of control
same,T/C,"dose: 25.0 mg/kg/injection, schedule: Q01DX009 (ip), vehicle: saline",94 % of control
same,T/C,"dose: 25.0 mg/kg/injection, schedule: Q01DX009 (ip), vehicle: suspension in saline",106 % of control
same,T/C,[11],100 % of control
same,T/C,[13],113 % of control
same,T/C,[12],94 % of control
O=C1CN(CCN2CCOCC2)CC(=O)N2CCCCN12,T/C,"dose: 50.0 mg/kg/injection, schedule: Q01DX005 (ip), vehicle: saline",99 % of control
same,T/C,"dose: 100.0 mg/kg/injection, schedule: Q01DX005 (ip), vehicle: saline",102 % of control
same,T/C,"dose: 200.0 mg/kg/injection, schedule: Q01DX005 (ip), vehicle: saline",107 % of control
CCOC(=O)C(N=Nc1nn[nH]n1)c1ncn[nH]1 (centres undefined),T/C,"dose: 50.0 mg/kg/injection, schedule: Q01DX001 (ip), vehicle: Klucel (hydroxypropylcellulose) (HPC)",98 % of control
same,T/C,"dose: 100.0 mg/kg/injection, schedule: Q01DX001 (ip), vehicle: Klucel (hydroxypropylcellulose) (HPC)",98 % of control
same,T/C,"dose: 200.0 mg/kg/injection, schedule: Q01DX001 (ip), vehicle: Klucel (hydroxypropylcellulose) (HPC)",91 % of control
O=S(=O)(NCCSSCCNS(=O)(=O)c1ccccc1)c1ccccc1,T/C,[1],96 % of control
same,T/C,[2],98 % of control and 105 % of control
same,T/C,[3],110 % of control
same,T/C,[4],103 % of control and 90 % of control
O=C(O)/C(Cl)=C(/Cl)C(=O)C(Cl)(Cl)Cl,T/C,"dose: 3.13 mg/kg/injection, schedule: Q01DX009 (ip), vehicle: distilled water + Tween-80",108 % of control
same,T/C,"dose: 25.0 mg/kg/injection, schedule: Q01DX009 (ip), vehicle: distilled water + Tween-80",155 % of control
same,T/C,"dose: 50.0 mg/kg/injection, schedule: Q01DX009 (ip), vehicle: distilled water + Tween-80",155 % of control
COc1ccc2nc3cc(Cl)ccc3c(NCCCN3CCCC3)c2n1,T/C,"dose: 12.5 mg/kg/injection, schedule: Q01DX009 (ip), vehicle: water",102 % of control
same,T/C,"dose: 25.0 mg/kg/injection, schedule: Q01DX009 (ip), vehicle: water",102 % of control

# From PubChem BioAssay AID330 (DTP/NCI, 2004)
